From US20240043661A1, “CYCLODEXTRIN DIMERS AND USES THEREOF” (UNDERDOG PHARMACEUTICALS, INC., priority 2020, published 2024)

Legend:
[1] = In vitro solubility assay (turbidity assay) with cholesterol; format: physicochemical; conditions: 300 μM sterol, 3% ethanol in PBS, 30 mins at 37C, absorbance at 350 nm
Method: (§1) Greater affinity for one compound than another, e.g., greater affinity for 7KC than cholesterol, may be determined using a “turbidity test” performed on an aqueous suspension containing 3% ethanol, 300 uM sterol, in PBS and 1 mM of the CD to be tested. This single concentration of CD is used in order to standardize the test results. To perform the test, the samples are incubated for 30 mins at 37C, and then absorbance at 350 nm is measured, e.g., using a spectrophotometer plate reader. Relative turbidity is determined by dividing the measured turbidity in the presence of the CD to the baseline turbidity without the CD. A given CD has greater affinity for 7KC than cholesterol if the relative turbidity of the 7KC suspension is lower than the relative turbidity of the cholesterol solution.
(§2) Sterol stock solutions (including cholesterol and 7KC) were suspended in 100% ethanol. Final concentration of suspensions: 3% ethanol, 300 μM sterol, in PBS with various concentrations of CDs.

[2] = In vitro solubility assay (turbidity assay) with 7KC; format: physicochemical; conditions: 300 μM sterol, 3% ethanol in PBS, 30 mins at 37C, absorbance at 350 nm
Method: as §1, §2

solubilization / binding of cholesterol (turbidity) [1]: low affinity for 7KC and cholesterol
solubilization / binding of 7KC (turbidity) [2]: low affinity for 7KC and cholesterol
SMILES: OC[C@H]1O[C@@H]2O[C@H]3[C@H](O)[C@@H](O)[C@@H](O[C@H]4[C@H](O)[C@@H](O)[C@@H](O[C@H]5[C@H](O)[C@@H](O)[C@@H](O[C@H]6[C@H](O)[C@@H](O)[C@@H](O[C@H]7[C@H](O)[C@@H](O)[C@@H](O[C@H]1[C@H](O)[C@H]2O)O[C@@H]7CO)O[C@@H]6CO)O[C@@H]5CO)O[C@@H]4CO)O[C@@H]3CO [native αCD]
specificity for 7KC over cholesterol (turbidity) [2]: no specificity
